In ChEMBL document CHEMBL1201862, “PubChem BioAssay data set” (2004):
Calls of active or inactive are those of the source.

Columns and labels:
Phosphomannomutase 2 = Phosphomannomutase 2 (Homo sapiens, UniProt O15305); assay: Counter screen SAR assay for PMM2 inhibitors via a fluorescence intensity assay. [Related pubchem assays (depositor defined):AID1545, AID1574]
[1] = biological target: T1, Mannose-6-phosphate isomerase (Homo sapiens, UniProt P34949); assay: PMI enzyme inhibitors, confirmation, biochemical, fluorescence intensity (AID 1535)
T1 sequence (P34949 whole entry): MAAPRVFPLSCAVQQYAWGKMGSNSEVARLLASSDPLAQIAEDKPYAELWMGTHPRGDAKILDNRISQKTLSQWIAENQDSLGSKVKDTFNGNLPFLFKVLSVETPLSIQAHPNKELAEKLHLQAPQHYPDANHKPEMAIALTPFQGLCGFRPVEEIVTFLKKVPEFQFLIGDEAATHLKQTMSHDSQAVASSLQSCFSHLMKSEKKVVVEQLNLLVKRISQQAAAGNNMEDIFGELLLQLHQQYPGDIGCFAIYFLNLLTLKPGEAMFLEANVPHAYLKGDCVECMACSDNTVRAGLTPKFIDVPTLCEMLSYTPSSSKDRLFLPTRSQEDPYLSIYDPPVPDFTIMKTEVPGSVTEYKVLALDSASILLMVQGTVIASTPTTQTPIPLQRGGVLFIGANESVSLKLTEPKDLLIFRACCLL

Cytochrome P450 1A2 = biological target: T2, Cytochrome P450 1A2 (Homo sapiens, UniProt P05177);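 further: PubChem cytochrome P450 panel assay, CYP1A2 panel member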
T2 sequence (P05177 whole entry): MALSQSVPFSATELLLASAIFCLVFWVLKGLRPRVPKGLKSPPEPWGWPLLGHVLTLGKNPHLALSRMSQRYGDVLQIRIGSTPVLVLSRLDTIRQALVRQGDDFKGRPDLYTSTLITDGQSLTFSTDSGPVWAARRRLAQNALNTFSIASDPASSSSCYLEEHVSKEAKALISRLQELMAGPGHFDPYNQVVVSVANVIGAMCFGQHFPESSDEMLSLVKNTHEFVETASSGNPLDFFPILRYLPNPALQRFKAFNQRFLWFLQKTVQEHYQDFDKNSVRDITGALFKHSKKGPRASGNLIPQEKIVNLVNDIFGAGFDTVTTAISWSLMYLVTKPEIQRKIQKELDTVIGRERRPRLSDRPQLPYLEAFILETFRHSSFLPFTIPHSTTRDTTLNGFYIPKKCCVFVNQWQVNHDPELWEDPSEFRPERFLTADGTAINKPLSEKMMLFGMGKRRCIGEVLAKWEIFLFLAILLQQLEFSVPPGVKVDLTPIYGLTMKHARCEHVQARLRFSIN

Cytochrome P450 3A4 = Cytochrome P450 3A4 (Homo sapiens, UniProt P08684);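 further: CYP3A4 tested as one member of a cytochrome P450 panel screen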
Cytochrome P450 2C19 = Cytochrome P450 2C19 (Homo sapiens, UniProt P33261); assay: Cytochrome panel assay with activity outcomes. Panel member name: p450-cyp2c19 Compounds with AC50 equal or less than 10 uM are considered active; assay type: functional; details: read-out: AC50
[2] = biological target: T3, Dual specificity protein phosphatase 3 (Homo sapiens, UniProt P51452); assay: Dose Response Confirmation of compounds that inhibit VHR1 in Fluorescent Assay. [Related pubchem assays (depositor defined):AID1661, AID1878]; assay type: functional
Cytochrome P450 2C9 = Cytochrome P450 2C9 (Homo sapiens, UniProt P11712)
[3] = biological target: T3, Dual specificity protein phosphatase 3; assay: SAR VHR1 Fluorescent Assay for In Vitro dose response studies Set 3. [Related pubchem assays (depositor defined):AID1654, AID1661, AID1878]; assay type: functional
[4] = biological target: T4, Tyrosine-protein phosphatase non-receptor type 7 (Homo sapiens, UniProt P35236); assay: Dose Response confirmation of compounds that inhibit HePTP. [Related pubchem assays (depositor defined):AID1059, AID1661, AID2085]; assay type: functional
T4 sequence (P35236 whole entry): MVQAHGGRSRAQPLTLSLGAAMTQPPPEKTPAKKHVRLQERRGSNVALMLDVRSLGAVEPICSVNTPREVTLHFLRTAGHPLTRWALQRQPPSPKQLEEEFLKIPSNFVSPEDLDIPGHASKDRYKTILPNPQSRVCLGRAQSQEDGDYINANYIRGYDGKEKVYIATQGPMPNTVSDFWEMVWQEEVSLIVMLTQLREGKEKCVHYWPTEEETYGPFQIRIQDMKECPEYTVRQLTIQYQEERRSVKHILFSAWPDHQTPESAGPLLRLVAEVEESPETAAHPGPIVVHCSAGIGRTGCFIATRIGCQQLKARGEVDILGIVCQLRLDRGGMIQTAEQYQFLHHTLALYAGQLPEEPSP

[5] = inhibitors of intracellular T. cruzi replication, confirmation, NIH3T3 host cells, beta-gal luminescence (AID 2044); assay type: functional, cell-based;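 further: intracellular parasites grown in NIH/3T3 mouse fibroblasts as host cells; luminescent beta-galactosidase reporter signal from transgenic T. cruzi replicating inside host cells; inhibitors lower the luminescence signal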
[6] = Vero E6 cell cytotoxicity, dose response, cytotoxicity control for non-replicating M. tuberculosis project, secondary assay (AID 492998); assay type: functional, VeroE6; details: Vero C1008
[7] = HepG2 cell cytotoxicity, dose response, cytotoxicity control for non-replicating M. tuberculosis project (AID 489018); assay type: functional; details: Mycobacterium tuberculosis
[8] = cytotoxicity toward NIH3T3 fibroblasts, dose response, counter-screen, cell-based, ATP luminescence, mouse fibroblasts (AID 2010); assay type: functional;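 further: cells exposed to compound for about 90 hours before reading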
[9] = THP-1 cell cytotoxicity, dose response, cytotoxicity control for non-replicating M. tuberculosis project (AID 489025); assay type: functional
Vero = assay: cells; assay type: functional; details: Chlorocebus sabaeus
cells = assay type: functional
[10] = biological target: T5, G-protein coupled receptor 55 (Homo sapiens, UniProt Q9Y2T6); assay: GPR55 agonists via beta-arrestin recruitment, primary screen, imaging, U2OS cells, beta-arrestin-GFP redistribution (AID 1961); assay type: functional
[11] = biological target: T6, Short transient receptor potential channel 4 (Mus musculus, UniProt Q9QUQ5); assay: TRPC4 positive allosteric modulators, dose response, cell-based, HEK293 TRPC4/mu-opioid, Fluo-4 calcium, EC20 DAMGO (AID 434941); assay type: functional
T6 sequence (Q9QUQ5 whole entry): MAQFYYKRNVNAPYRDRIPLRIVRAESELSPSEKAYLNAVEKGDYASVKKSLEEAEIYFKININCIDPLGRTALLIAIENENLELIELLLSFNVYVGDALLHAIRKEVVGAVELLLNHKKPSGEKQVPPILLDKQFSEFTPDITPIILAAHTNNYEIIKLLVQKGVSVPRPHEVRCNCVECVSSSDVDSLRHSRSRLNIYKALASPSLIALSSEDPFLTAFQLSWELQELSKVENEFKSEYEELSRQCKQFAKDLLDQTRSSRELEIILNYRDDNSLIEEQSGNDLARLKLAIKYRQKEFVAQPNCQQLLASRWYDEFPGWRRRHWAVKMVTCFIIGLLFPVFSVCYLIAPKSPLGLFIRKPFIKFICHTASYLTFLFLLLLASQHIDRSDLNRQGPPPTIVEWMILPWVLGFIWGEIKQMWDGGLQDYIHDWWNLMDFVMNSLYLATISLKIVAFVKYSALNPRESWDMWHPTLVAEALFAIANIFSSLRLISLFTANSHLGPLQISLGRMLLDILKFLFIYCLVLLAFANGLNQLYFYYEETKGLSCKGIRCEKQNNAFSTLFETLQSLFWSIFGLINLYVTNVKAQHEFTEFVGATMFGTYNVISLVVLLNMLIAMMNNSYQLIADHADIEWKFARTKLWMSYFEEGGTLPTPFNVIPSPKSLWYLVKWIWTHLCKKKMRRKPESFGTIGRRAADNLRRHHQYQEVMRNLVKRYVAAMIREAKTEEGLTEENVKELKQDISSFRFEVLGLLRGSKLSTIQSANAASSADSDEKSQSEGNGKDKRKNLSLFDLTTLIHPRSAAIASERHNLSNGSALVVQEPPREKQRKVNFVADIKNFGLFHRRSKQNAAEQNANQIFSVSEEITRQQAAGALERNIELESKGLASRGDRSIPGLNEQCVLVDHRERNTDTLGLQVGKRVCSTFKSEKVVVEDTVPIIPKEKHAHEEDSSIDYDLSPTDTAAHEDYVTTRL

[12] = biological target: Eukaryotic translation initiation factor 4E (Mus musculus, UniProt P63073); assay: eIF4E–eIF4G protein interaction inhibitors, dose response, biochemical, TR-FRET (AID 855); assay type: functional;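 further: potency for disrupting eIF4E binding to eIF4GI seen as loss of FRET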
[13] = HepG2 cell cytotoxicity, dose response, cytotoxicity control for Shn3 inhibitor project, CellTiter-Glo, cherry-picked (AID 624134); assay type: functional, cell-based
[14] = C. albicans growth with fluconazole, confirmation, fluorescence, retest (AID 2467); assay type: functional, cell-based
[15] = NIH-3T3 fibroblast cytotoxicity, dose response, cytotoxicity control, cell-based, fluorescence, Alamar Blue, secondary assay (AID 2327); assay type: functional;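 further: NIH-3T3 mouse fibroblasts cultured with fluconazole at 8 µg/mL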
[16] = control 3'UTR Renilla luciferase suppression, dose response, counter-screen for Shn3 inhibitor project, cell-based, Clone20-Shn3RL, cherry-picked (AID 624133); assay type: functional
INS1 = assay: beta cell apoptosis inhibitors, cytokine rescue, dose response, luminescence, retest (AID 449756); assay type: functional, cell-based; details: Rattus norvegicus;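 further: cell death triggered by IL-1 beta plus TNF-alpha plus IFN-gamma mixture; protective hits raise ATP signal compared with cytokine alone wells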
[17] = Shn3 3'UTR reporter inhibitors, dose response, cell-based, Clone20 osteoblasts, firefly luciferase, cherry-picked (AID 624132); assay type: functional;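 further: firefly luciferase luminescence from reporter carrying the Shn3 3'UTR in osteoblasts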
[18] = biological target: E3 ubiquitin-protein ligase Mdm2/Protein Mdm4 (Homo sapiens, UniProt O15151+Q00987); assay: Mdm2-MdmX interaction inhibitors, dose response, luminescence detection (AID 504593); assay type: functional
[19] = A Cell Based Secondary Assay To Explore Cytotoxicity of Compounds that Sensitize Mycobacterium Tuberculosis to Beta-Lactam Antibiotics.; assay type: functional
[20] = biological target: G-protein coupled receptor 35 (Homo sapiens, UniProt Q9HC97); assay: SAR analysis of Antagonists of the GPR35 Receptor using an Image-Based Assay - Set 5. [Related pubchem assays (depositor defined):AID2058, AID2079]; assay type: functional
[21] = biological target: T5, G-protein coupled receptor 55; assay: SAR Analysis of Selective Antagonists of GPR55 using an Image-Based Assay - Set 3. [Related pubchem assays (depositor defined):AID2058, AID2079]; assay type: functional
[22] = biological target: Alkaline phosphatase, placental type (Homo sapiens, UniProt P05187); assay: PLAP enzyme inhibitors, confirmation, biochemical, luminescence (AID 1512); assay type: functional
[23] = biological target: Alkaline phosphatase, tissue-nonspecific isozyme (Homo sapiens, UniProt P05186); assay: human TNAP enzyme inhibitors, SAR follow-up, biochemical, luminescent, dose response (AID 1056)
[24] = biological target: T7, Kappa-type opioid receptor (Homo sapiens, UniProt P41145); assay: SAR analysis of small molecule antagonists of the kappa opioid receptor via a luminescent beta-arrestin assay - Set 3. [Related pubchem assays (depositor defined):AID1777, AID1778, AID1785, AID1786, AID1966, AID2133, AID2136, AID2285, AID2495]; assay type: functional
[25] = biological target: T7, Kappa-type opioid receptor; assay: SAR analysis of small molecule antagonists of the kappa opioid receptor via a luminescent beta-arrestin assay - Set 6. [Related pubchem assays (depositor defined):AID1777, AID1778, AID1785, AID1786, AID1966, AID2133, AID2136, AID2285]; assay type: functional
[26] = biological target: Delta-type opioid receptor (Homo sapiens, UniProt P41143); assay: SAR Analysis of Antagonists of the DOR Receptor using an Image-Based Assay - Set 3. [Related pubchem assays (depositor defined):AID1777, AID1785]; assay type: functional;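 further: U2OS cells expressing DOR1 and beta-arrestin GFP stimulated with 100 nM SNC80; imaging of GFP-tagged beta-arrestin moving into spots after receptor activation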
Mu-type opioid receptor = Mu-type opioid receptor (Homo sapiens, UniProt P35372); assay: SAR Analysis of Antagonists of the MOR Receptor using an Image-Based Assay - Set 3. [Related pubchem assays (depositor defined):AID1777, AID1785, AID1786, AID1966, AID2133, AID2136, AID2284, AID2285, AID2420]; assay type: functional
[27] = biological target: T7, Kappa-type opioid receptor; assay: SAR analysis of Antagonists of the Kappa Opioid Receptor (KOR) using an Image-Based Assay - Set 4. [Related pubchem assays (depositor defined):AID1777, AID1785]; assay type: functional

T7 sequence (P41145 whole entry): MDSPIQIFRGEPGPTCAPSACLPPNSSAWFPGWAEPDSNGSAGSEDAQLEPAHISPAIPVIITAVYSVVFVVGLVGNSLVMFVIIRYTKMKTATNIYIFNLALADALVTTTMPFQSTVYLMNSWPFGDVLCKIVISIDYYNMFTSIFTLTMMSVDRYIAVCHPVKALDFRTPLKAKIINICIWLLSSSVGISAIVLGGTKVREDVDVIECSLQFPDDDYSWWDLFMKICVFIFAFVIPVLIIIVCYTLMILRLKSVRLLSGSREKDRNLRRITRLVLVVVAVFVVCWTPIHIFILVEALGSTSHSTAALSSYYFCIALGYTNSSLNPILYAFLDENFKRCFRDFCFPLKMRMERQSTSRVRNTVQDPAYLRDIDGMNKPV
T3 sequence (P51452 whole entry): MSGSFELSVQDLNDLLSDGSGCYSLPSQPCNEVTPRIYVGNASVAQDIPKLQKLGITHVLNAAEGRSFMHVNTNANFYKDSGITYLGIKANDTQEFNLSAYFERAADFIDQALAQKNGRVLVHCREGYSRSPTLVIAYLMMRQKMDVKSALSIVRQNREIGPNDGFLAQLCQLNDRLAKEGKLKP
T5 sequence (Q9Y2T6 whole entry): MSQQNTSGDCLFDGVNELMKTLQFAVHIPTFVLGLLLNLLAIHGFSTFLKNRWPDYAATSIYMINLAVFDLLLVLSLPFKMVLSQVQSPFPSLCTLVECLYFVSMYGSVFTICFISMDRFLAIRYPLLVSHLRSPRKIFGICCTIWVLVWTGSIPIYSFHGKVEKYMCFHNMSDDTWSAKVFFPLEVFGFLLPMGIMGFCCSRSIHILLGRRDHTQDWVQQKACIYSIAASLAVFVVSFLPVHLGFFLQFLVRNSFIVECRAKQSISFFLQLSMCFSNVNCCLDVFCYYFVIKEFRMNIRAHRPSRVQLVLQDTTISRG
Sequence of Mu-type opioid receptor (P35372 whole entry): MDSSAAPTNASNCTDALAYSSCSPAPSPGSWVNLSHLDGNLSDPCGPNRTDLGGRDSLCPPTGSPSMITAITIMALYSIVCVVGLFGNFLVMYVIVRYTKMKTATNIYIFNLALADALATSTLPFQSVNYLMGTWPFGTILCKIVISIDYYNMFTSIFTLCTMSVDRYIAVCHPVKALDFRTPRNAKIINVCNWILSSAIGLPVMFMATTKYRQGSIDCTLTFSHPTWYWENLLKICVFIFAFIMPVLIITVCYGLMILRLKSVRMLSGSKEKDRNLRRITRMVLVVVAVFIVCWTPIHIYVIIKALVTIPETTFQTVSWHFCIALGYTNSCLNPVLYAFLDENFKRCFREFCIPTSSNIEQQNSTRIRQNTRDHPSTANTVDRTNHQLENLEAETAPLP
Sequence of Alkaline phosphatase, placental type (P05187 whole entry): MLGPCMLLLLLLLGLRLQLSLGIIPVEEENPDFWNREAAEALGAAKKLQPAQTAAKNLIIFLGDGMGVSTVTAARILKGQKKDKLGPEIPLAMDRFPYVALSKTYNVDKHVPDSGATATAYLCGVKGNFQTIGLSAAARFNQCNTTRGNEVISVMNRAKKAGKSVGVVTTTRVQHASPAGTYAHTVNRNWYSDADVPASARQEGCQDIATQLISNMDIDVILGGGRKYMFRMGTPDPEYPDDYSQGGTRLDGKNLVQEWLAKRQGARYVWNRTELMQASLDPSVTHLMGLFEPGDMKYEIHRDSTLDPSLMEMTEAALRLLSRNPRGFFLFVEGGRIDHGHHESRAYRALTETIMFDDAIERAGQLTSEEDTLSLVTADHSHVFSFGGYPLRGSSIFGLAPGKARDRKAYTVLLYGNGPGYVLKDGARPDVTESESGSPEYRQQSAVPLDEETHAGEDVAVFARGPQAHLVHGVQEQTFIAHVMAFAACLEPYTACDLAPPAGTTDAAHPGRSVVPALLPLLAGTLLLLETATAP
Sequence of Cytochrome P450 2C19 (P33261 whole entry): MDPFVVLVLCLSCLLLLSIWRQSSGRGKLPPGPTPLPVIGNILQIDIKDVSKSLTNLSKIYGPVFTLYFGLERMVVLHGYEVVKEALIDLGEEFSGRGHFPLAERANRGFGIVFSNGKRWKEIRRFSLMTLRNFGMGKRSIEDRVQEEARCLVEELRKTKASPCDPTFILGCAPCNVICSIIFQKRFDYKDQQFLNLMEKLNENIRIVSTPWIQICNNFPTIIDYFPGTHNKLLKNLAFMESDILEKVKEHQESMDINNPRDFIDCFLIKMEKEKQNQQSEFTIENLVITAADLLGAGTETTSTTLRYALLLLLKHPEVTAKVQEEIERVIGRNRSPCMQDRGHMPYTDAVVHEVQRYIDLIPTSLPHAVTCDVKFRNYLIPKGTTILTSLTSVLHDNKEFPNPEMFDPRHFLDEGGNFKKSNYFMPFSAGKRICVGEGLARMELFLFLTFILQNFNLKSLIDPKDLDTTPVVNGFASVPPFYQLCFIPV
Sequence of E3 ubiquitin-protein ligase Mdm2/Protein Mdm4 (Q00987 whole entry): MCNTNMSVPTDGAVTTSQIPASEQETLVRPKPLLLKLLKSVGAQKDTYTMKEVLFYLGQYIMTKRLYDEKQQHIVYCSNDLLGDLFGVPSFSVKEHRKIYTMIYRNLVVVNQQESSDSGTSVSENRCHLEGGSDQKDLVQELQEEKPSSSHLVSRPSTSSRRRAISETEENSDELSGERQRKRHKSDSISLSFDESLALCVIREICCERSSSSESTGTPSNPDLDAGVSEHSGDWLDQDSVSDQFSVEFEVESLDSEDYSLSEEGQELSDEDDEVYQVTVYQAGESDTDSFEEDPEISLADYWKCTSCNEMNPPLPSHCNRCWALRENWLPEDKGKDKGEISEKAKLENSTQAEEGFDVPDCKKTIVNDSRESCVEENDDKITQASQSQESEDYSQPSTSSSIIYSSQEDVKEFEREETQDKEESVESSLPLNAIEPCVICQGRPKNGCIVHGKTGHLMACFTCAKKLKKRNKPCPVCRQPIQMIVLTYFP
Sequence of E3 ubiquitin-protein ligase Mdm2/Protein Mdm4 (O15151 whole entry): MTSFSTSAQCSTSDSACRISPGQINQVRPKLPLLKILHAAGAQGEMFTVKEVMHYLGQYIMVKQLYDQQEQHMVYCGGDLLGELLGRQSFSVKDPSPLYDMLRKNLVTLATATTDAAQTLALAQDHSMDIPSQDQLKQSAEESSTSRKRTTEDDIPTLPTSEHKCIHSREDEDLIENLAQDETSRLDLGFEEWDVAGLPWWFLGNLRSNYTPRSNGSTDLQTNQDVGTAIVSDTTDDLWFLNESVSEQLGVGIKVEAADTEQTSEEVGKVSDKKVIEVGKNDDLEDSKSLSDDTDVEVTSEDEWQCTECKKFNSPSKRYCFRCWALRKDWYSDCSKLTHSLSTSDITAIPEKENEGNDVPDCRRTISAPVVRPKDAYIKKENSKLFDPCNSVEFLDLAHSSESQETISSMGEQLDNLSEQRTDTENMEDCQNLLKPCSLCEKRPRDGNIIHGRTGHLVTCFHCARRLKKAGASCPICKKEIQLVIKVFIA
Sequence of Phosphomannomutase 2 (O15305 whole entry): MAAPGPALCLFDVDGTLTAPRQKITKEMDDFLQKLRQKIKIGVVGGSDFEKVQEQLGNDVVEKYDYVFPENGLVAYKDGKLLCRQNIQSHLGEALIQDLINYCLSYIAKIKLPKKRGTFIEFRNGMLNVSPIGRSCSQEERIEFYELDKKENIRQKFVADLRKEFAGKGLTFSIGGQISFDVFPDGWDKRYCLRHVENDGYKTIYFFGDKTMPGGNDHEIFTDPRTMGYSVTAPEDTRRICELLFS
Sequence of G-protein coupled receptor 35 (Q9HC97 whole entry): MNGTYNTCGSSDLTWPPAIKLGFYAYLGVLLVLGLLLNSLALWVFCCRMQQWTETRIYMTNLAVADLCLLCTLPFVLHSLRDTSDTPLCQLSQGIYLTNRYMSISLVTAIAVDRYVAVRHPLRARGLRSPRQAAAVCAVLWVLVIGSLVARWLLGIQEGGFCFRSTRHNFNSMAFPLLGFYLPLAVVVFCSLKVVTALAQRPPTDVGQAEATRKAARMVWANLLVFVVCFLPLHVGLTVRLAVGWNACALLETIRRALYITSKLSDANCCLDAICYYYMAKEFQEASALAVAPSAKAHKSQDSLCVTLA
Sequence of Eukaryotic translation initiation factor 4E (P63073 whole entry): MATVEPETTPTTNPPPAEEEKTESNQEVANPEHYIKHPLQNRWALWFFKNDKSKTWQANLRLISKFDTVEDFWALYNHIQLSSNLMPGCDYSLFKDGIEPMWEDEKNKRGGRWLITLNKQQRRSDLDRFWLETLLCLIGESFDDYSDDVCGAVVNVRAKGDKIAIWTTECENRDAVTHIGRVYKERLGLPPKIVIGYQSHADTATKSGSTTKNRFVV
Sequence of Cytochrome P450 3A4 (P08684 whole entry): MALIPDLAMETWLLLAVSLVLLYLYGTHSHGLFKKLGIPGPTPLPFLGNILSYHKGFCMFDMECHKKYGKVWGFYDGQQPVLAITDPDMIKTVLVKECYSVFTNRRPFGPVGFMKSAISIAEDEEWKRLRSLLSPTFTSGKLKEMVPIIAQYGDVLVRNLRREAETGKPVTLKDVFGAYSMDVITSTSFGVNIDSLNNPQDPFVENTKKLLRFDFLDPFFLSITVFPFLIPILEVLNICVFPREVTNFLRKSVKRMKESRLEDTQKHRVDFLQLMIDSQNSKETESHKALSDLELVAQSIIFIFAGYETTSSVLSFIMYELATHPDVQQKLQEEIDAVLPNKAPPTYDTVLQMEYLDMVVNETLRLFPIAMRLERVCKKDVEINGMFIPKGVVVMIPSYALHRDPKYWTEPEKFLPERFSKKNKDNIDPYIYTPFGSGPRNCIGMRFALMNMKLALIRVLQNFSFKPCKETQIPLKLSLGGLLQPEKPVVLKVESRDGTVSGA

SMILES: CCOC(=O)c1ccc(NC2Nc3cc(C)nn3S2)cc1 (stereo unspecified)
- IC50 (Phosphomannomutase 2): > 100 µM (inactive)
- IC50 [1]: > 50 µM (inactive)

SMILES: Cc1ccc(-c2nc3ccccc3s2)cc1NC(=O)c1cc(-n2cnnc2)ccc1Cl
- AC50 (Cytochrome P450 1A2): 2.24 µM (inconclusive)
- AC50 (Cytochrome P450 3A4): 891 nM (inconclusive)
- AC50 (Cytochrome P450 2C19): 794 nM (inconclusive)
- IC50 [2]: 2.21 µM (active)
- AC50 (Cytochrome P450 2C9): 2.51 µM (inconclusive)
- IC50 [3]: 3.69 µM (active)
- IC50 [4]: 4.69 µM (active)

SMILES: O=C(Nc1nc2ccccc2n1CCOc1ccc(Cl)cc1)c1ccco1
- EC50 [5]: 2.02 µM (active)
- CC50 [6]: 9.25 µM (active)
- CC50 [7]: > 20 µM (active)
- EC50 [8]: 8.97 µM (active)
- CC50 [9]: 34.4 µM (active)
- CC50 (Vero): 14 µM (active)
- IC50 (cells): 9.2 µM (active)

SMILES: O=C(CSc1nc2ccccc2s1)N1c2ccccc2Sc2ccccc21
- EC50 [10]: 12.7 µM (inactive)

SMILES: Cc1cc(-c2ccc(C)c(S(=O)(=O)N3CCN(C(=O)c4ccco4)CC3)c2)on1
- EC50 [11]: 6.68 µM (active)

SMILES: CC(=O)Nc1c(-c2ccccc2)nc2ncccn12
- IC50 [12]: > 64 µM (inactive)

SMILES: CCOc1cc(N2CCOCC2)c(OCC)cc1NC(=O)COc1cccc2cccnc12
- AC50 [13]: 8.92 µM (active)
- EC50 [14]: > 38 µM (not active)
- EC50 [15]: > 150 µM (inactive)
- AC50 [16]: 5.04 µM (active)
- AC50 (INS1): 3.83 µM (active)
- AC50 [17]: 2.41 µM (active)
- IC50 [18]: 4.99 µM (active)

SMILES: COC(=O)c1cnn(-c2ccccc2)c1/C=N/NC(=S)Nc1ccc(Cl)cc1
- CC50 [19]: > 40 µM (active)
- IC50 [20]: 319 nM (active)
- IC50 [21]: > 32 µM (inactive)

SMILES: COc1ccc(C(=O)CSc2nc3cc(C)c(C)cc3[nH]2)cc1OC
- IC50 [22]: > 100 µM (inactive)
- IC50 [23]: > 100 µM (inactive)

SMILES: O=C(Cn1c(=O)c2cccn2c2cccnc21)NCCCN1CCN(c2ccc(Cl)cc2)CC1
- IC50 [24]: 3.44 µM (active)
- IC50 [25]: 6.93 µM (active)
- IC50 [26]: > 32 µM (inactive)
- IC50 (Mu-type opioid receptor): > 32 µM (inactive)
- IC50 [27]: 96 nM (active)
